US20220251084A1, “PROGRANULIN MODULATORS AND METHODS OF USING THE SAME” (ARKUDA THERAPEUTICS, priority 2019, published 2022)
Like-named read-outs stand apart in the source and are kept apart here.

Test system: progranulin (PGRN) secretion, BV-2 cells
Test: PGRN assay: progranulin induction cellular assay (ELISA of secreted mouse PGRN)
Format: cell-based
Experimental: Cellular Assays: To measure the efficacy of compounds, a progranulin induction cellular assay in mouse primary microglia (pMG), primary cortical neurons, and BV-2 cell lines is used. BV-2 cells are split the day before plating into a 96 well plate format at approximately 80%. Cells should be plated the day before and allowed for 1 hour attachment period and for 16 hour incubation. […] Standard ELISA kits to measure PGRN are available from vendors such as Adipogen, R&D, and Biovendor.

[1] = Mus musculus, BV-2, PGRN assay, Table C, secreted mouse PGRN in cell culture medium, ELISA

EC50 [1] | SMILES | EC50
0.321 µM | CN1C[C@H]2CC[C@@H](OC(=O)N3CCc4ccccc4[C@@H]3c3ccc(F)cc3)[C@H]2C1 (relative stereo) [Compound 2061, (1 S)-(rel-(3′aR,6′aS)-2′-methyloctahydrocyclopenta[c]pyrrol-4-yl)-1-(4-fluorophenyl)-3,4-dihydroisoquinoline-2(1H)-carboxylate] | 
1.12 µM | CN1C[C@@H]2CC[C@H](OC(=O)N3CCc4ccccc4[C@@H]3c3ccc(F)cc3)[C@@H]2C1 (relative stereo) [Compound 2062, (1 S)-(rel-(3′aR,6′aS)-2′-methyloctahydrocyclopenta[c]pyrrol-4-yl)-1-(4-fluorophenyl)-3,4-dihydroisoquinoline-2(1H)-carboxylate] | 
> 10 µM | CN1CCS(=O)(=O)[C@@H](CC(=O)N2CCc3ccccc3[C@@H]2c2ccc(F)cc2)C1 (single isomer, unassigned) [Compound 2043] | 
> 10 µM | CN1CC2OCC(OC(=O)N3CCc4ccccc4[C@@H]3c3ccc(F)cc3)C2C1 (single isomer, unassigned) [Compound 2076] | 
0.379 µM | CN1CC2CCC(C1)C2OC(=O)N1CCc2ccccc2[C@@H]1c1ccc(F)cc1 (single isomer, unassigned) [Compound 2093] | 
0.278 µM | O=C(O[C@H]1[C@@H]2CC[C@H]1CNC2)N1CCc2ccccc2[C@@H]1c1ccc(F)cc1 (single isomer, unassigned) [Compound 2102] | 
4.28 µM | O=C(O[C@@H]1[C@@H]2CC[C@H]1CNC2)N1CCc2ccccc2[C@@H]1c1ccc(F)cc1 (single isomer, unassigned) [Compound 2103] | 
> 10 µM | CN1CC2COC[C@@H](C1)[C@H]2OC(=O)N1CCc2ccccc2[C@@H]1c1ccc(F)cc1 (single isomer, unassigned) [Compound 2106] | 
 | O=C(O[C@@H]1CN2CCC1(F)CC2)N1CCc2ccccc2[C@@H]1c1ccc(F)cc1 (single isomer, unassigned) [Compound 2126] | 1.25 µM
 | O=C(O[C@H]1CN2CCC1(F)CC2)N1CCc2ccccc2[C@@H]1c1ccc(F)cc1 (single isomer, unassigned) [Compound 2127] | 1.86 µM
> 10 µM | CN1CCC(COC(=O)N2CCc3ccccc3[C@H]2c2ccc(F)c(F)c2)CC1 (single isomer, unassigned) [Compound 2139, (1-methylpiperidin-4-yl)methyl-1-(3,4-difluorophenyl)-3,4-dihydroisoquinoline-2(1H)-carboxylate] | 
2.54 µM | O=C(O[C@H]1CCCNC1)N1CCc2ccccc2[C@@H]1c1ccc(F)cc1 (single isomer, unassigned) [Compound 2168] | 

SMILES | EC50 [1] | EC50
CN1[C@H]2COC[C@H]1CC(OC(=O)N1CCc3ccccc3[C@@H]1c1ccc(F)cc1)C2 (single isomer, unassigned) [Compound 2099] | 1.88 µM | 
Fc1ccc(C2c3ccccc3CCN2C(C[C@@H]2CN3CCC2CC3)C(F)(F)F)cc1 (single isomer, unassigned) [Compound 2132] | 3.07 µM | 
O=C(OCC12CCN(CC1)CC2)N1CCc2ccccc2[C@@H]1c1cc(F)cc(F)c1 (single isomer, unassigned) [Compound 2140, quinuclidin-4-ylmethyl-1-(3,5-difluorophenyl)-3,4-dihydroisoquinoline-2(1H)-carboxylate] | 9.91 µM | 
O=C(OCC12CCN(CC1)CC2)N1CCc2ccccc2[C@H]1c1cc(F)cc(F)c1 (single isomer, unassigned) [Compound 2141, quinuclidin-4-ylmethyl-1-(3,5-difluorophenyl)-3,4-dihydroisoquinoline-2(1H)-carboxylate] | > 10 µM | 
O=C([C@@H](O)CC12CCN(CC1)CC2)N1CCc2ccccc2[C@@H]1c1ccc(F)cc1 (single isomer, unassigned) [Compound 2153] | > 10 µM | 
O=C([C@H](O)CC12CCN(CC1)CC2)N1CCc2ccccc2[C@@H]1c1ccc(F)cc1 (single isomer, unassigned) [Compound 2154] | 0.353 µM | 
